Data from the NIST ThermoML archive (doi:10.1021/je050434f).
Numbers after ± are expanded uncertainties.

How the values were obtained:
[1] = refractive index (Na D-line) (dimensionless); conditions: 101.33 kPa, Liquid, Abbe refractometer
[2] = for speed of sound / mass density / viscosity: 101.33 kPa, Liquid; for speed of sound: Sing-around technique in a fixed-path interferometer; for mass density: Vibrating tube method; for surface tension liquid-gas: Pendant drop shape; for viscosity: Capillary tube (Ostwald / Ubbelohde) method

Structure (SMILES): COS(=O)(=O)[O-].Cn1cc[n+](C)c1 [1,3-dimethylimidazolium methylsulfate]
- refractive index ([1]; 283.15 K): 1.48659 ± 0.001
- refractive index ([1]; 288.15 K): 1.48525 ± 0.001
- refractive index ([1]; 293.15 K): 1.48392 ± 0.001
- refractive index ([1]; 298.15 K): 1.4827 ± 0.001
- refractive index ([1]; 303.15 K): 1.48129 ± 0.001
- refractive index ([1]; 308.15 K): 1.47999 ± 0.001
- refractive index ([1]; 313.15 K): 1.47867 ± 0.001
- refractive index ([1]; 318.15 K): 1.47726 ± 0.001
- refractive index ([1]; 323.15 K): 1.47593 ± 0.001
- refractive index ([1]; 328.15 K): 1.47421 ± 0.001
- refractive index ([1]; 333.15 K): 1.47294 ± 0.001
- refractive index ([1]; 338.15 K): 1.47154 ± 0.001
- refractive index ([1]; 343.15 K): 1.47027 ± 0.001
- speed of sound ([2]; 283.15 K): 1851 ± 5 m/s
- mass density ([2]; 283.15 K): 1338.24 ± 3.5 kg/m3
- surface tension liquid-gas ([2]; 288.15 K): 60.9 ± 1.6 mN/m
- speed of sound ([2]; 288.15 K): 1838 ± 5 m/s
- mass density ([2]; 288.15 K): 1334.54 ± 3.5 kg/m3
- surface tension liquid-gas ([2]; 293.15 K): 60.3 ± 1.6 mN/m
- viscosity ([2]; 293.15 K): 92.76 ± 2.5 mPa·s
- speed of sound ([2]; 293.15 K): 1826 ± 5 m/s
- mass density ([2]; 293.15 K): 1330.88 ± 3.5 kg/m3
- surface tension liquid-gas ([2]; 298.15 K): 59.8 ± 1.6 mN/m
- viscosity ([2]; 298.15 K): 72.91 ± 1.9 mPa·s
- speed of sound ([2]; 298.15 K): 1813 ± 5 m/s
- mass density ([2]; 298.15 K): 1327.25 ± 3.5 kg/m3
- surface tension liquid-gas ([2]; 303.15 K): 59.5 ± 1.6 mN/m
- viscosity ([2]; 303.15 K): 58.35 ± 1.5 mPa·s
- speed of sound ([2]; 303.15 K): 1801 ± 5 m/s
- mass density ([2]; 303.15 K): 1323.65 ± 3.5 kg/m3
- surface tension liquid-gas ([2]; 308.15 K): 59.1 ± 1.6 mN/m
- speed of sound ([2]; 308.15 K): 1789 ± 5 m/s
- mass density ([2]; 308.15 K): 1320.09 ± 3.5 kg/m3
- surface tension liquid-gas ([2]; 313.15 K): 58.9 ± 1.6 mN/m
- viscosity ([2]; 313.15 K): 39.21 ± 0.99 mPa·s
- speed of sound ([2]; 313.15 K): 1777 ± 5 m/s
- mass density ([2]; 313.15 K): 1316.57 ± 3.5 kg/m3
- speed of sound ([2]; 318.15 K): 1765 ± 5 m/s
- mass density ([2]; 318.15 K): 1313.05 ± 3.5 kg/m3
- viscosity ([2]; 323.15 K): 27.78 ± 0.7 mPa·s
- speed of sound ([2]; 323.15 K): 1753 ± 5 m/s
- mass density ([2]; 323.15 K): 1309.55 ± 3.5 kg/m3
- speed of sound ([2]; 328.15 K): 1742 ± 5 m/s
- mass density ([2]; 328.15 K): 1306.06 ± 3.4 kg/m3
- viscosity ([2]; 333.15 K): 21.01 ± 0.53 mPa·s
- speed of sound ([2]; 333.15 K): 1730 ± 5 m/s
- mass density ([2]; 333.15 K): 1302.59 ± 3.4 kg/m3
- speed of sound ([2]; 338.15 K): 1719 ± 5 m/s
- mass density ([2]; 338.15 K): 1299.14 ± 3.4 kg/m3
- viscosity ([2]; 343.15 K): 16.01 ± 0.41 mPa·s
- speed of sound ([2]; 343.15 K): 1708 ± 5 m/s
- mass density ([2]; 343.15 K): 1295.7 ± 3.4 kg/m3
